# Results published in US12508286B2, “Composition for treating spinal cord injury, comprising stem cells treated with novel compound” (YJ CERAPEUTICS INC., priority 2019, dated 2025).
# Tested on: MSCs
# Assay: Stem cell differentiation confirmed with neural lineage markers
# Type: cell-based
# Conditions: MSCs cultured in a medium containing the compound for 5 days
# Experimental: Referring to FIGS. 3 and 4, MSCs were cultured in a medium containing the compound for 5 days, and the differentiation status was confirmed using a neural lineage marker. As a result.
# MSCs of passage 3 received from Kangstem Biotech were maintained in a KSB3 basal medium containing 10% FBS (Gibco) and supplements.
# After passage 1, MSCs of passage 4 were stocked and stored in liquid nitrogen.
# Referring to FIG. 1, MSCs of passage 5 were seeded at 1 mL per well in 12 wells diluted to 1.1×10^4/mL.
# After 4 hours, the cells were treated with 40 μM of L1 or L3 or 30 μM of L2 (Formula 1).
# After three days, the medium was changed with a new medium, and the cells were treated with the compound in the same manner and then additionally cultured for two days.
smiles,measurement,value
"CCc1ccc(N(C(=O)COC)c2nc3cc(Cl)ccc3o2)cc1 [L2, N-(5-Chlorobenzo[d]oxazol-2-yl)-N-(4-ethylphenyl)-2-methoxyacetamide]",GFAP expression,hardly expressed
same,Nestin expression,hardly expressed
same,Tuj1-positive cells,≥ 90%
